In paper PMC11173677, “Identification and Evaluation of Olive Phenolics in the Context of Amine Oxidase Enzyme Inhibition and Depression: In Silico Modelling and In Vitro Validation” (Molecules, 2024):

Legend:
[1] = tested on: total MAO; assay: Total MAO activity assay in corticosteroid-stimulated BJ cells; format: cell-based, human; conditions: then 50 μM compound 24 h
Procedure: (§1) The BJ cells were subsequently incubated with 10 μM HC or 100 μM DEX to stimulate MAO expression. […] The untreated BJ cells received normal growth medium. The cells were collected, homogenised, and analysed through Western blotting where the expression of MAO-A/B was determined through immunodetection of protein subtypes.
(§2) Activity assays were commercially sourced from BioVision (Abcam, BioVision ab241031, Waltham, MA, USA) and were performed according to manufacturer’s instructions. The treatment groups were plated in duplicate on a black, flat 96-well microplate. The cells were homogenised in assay buffer using a microtube mixer at 4 °C and centrifuged at 10,000× g for 10 min. A Bradford assay was performed to determine the total protein concentration within each cell pellet (200 μg/well for BJ cells, 40 μg/well for hESC-derived neurons). Approximately 40 μL of supernatant was loaded into wells along with 10 μL of either […], or assay buffer for total MAO activity. A H2O2 standard was pipetted as supplied and 50 μL of reaction mix was pipetted into all wells. Using a CLARIOstar Plus Microplate Reader, (BMG Labtech, Ortenberg, Germany), fluorescence was measured kinetically at 25 °C for 60 min with Ex/Em = 535/587 nm.

[2] = tested on: H3K4 mono-methylation; assay: H3K4 mono-methylation in BJ cells (Western blotting); format: cell-based, human; conditions: 50 μM, 48 h, compared to untreated cells; effects more pronounced with DEX
Procedure: As described in the Supplementary Information, nuclear proteins extracted from the BJ cultures were directly assayed for LSD1 activity (Epigentek P-3076, Farmingdale, NY, USA). Fluorescence was read on a CLARIOstar Microplate Reader (BMG Labtech, Ortenberg, Germany) at Ex/Em = 530/590 nm (Figure S4). Histone proteins were extracted from the treated cultures and were analysed through Western blotting. The mono-methylation status of lysine on histone 3 (H3K4) was determined via immunodetection (Table S6).
100µL of Nuclear Extraction Buffer containing 0.2µL 1M DTT and 0.4µL PIC was then added to the remaining nuclei-containing pellets. Full resuspension was achieved through multiple rounds of vigorous vortexing and ice incubations (to maintain protein integrity). Once the entire pellet was visibly resuspended in NEB, tubes were centrifuged at 16,000g for 10 minutes. The resulting supernatant containing the nuclear extract fraction was transferred to clean 0.5mL tubes and stored at -80°C.
Acid extraction of histone proteins
Cells were washed in 10mL of pre-chilled PBS (1X) and detached from flask surface via mechanical disruption using a cell scraper. Cell solution was then transferred into a 15mL tube and centrifuged at 150g for 10 minutes. Supernatant was then discarded and the remaining cell pellet resuspended in 0.5mL PBS (1X) and transferred into a 1.5mL microcentrifuge tube. Cells were then centrifuged at 9400g for 20 seconds, after which the supernatant was removed and discarded. The remaining pellet was then briefly resuspended in 600µL of acid extraction lysis buffer (10mM KCl, 10mM HEPES, […]) containing cOmplete™ Mini Protease Inhibitor Cocktail (Sigma-Aldrich, Roche 11836153001, MO USA) and 0.3µL 1M DTT. This will cause cells to pre-swell, resulting in a reduced amount of PBS (1X) remaining in the microcentrifuge tube that may deter maximal cell lysis capacity. Cells were then centrifuged at 9400g for 20 seconds with the resultant supernatant aspirated and discarded. […]

[3] = target: T1, purified MAO-B (Homo sapiens, UniProt P27338); assay: MAO-B direct screening assay (inhibitor screening kit); format: biochemical; conditions: purified enzyme; read-out: IC50, inhibition of MAO-B
T1 construct: purchased Sigma-Aldrich MAK296
T1 sequence (P27338 1-520): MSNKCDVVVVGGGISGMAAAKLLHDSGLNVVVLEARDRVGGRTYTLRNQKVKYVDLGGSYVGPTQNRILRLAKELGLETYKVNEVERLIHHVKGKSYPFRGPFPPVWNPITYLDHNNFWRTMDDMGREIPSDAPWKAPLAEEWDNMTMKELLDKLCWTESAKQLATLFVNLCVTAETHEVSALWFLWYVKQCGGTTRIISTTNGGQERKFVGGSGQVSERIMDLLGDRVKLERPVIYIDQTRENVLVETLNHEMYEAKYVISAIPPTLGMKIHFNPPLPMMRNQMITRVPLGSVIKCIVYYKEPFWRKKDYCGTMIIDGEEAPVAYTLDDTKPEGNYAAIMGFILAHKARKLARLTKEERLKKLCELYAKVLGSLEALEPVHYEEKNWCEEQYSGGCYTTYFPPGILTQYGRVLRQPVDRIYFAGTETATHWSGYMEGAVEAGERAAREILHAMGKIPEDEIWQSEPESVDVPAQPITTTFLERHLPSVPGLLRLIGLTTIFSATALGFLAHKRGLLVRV
Procedure: The assays were conducted for MAO-A and MAO-B according to the manufacturer’s instructions.

[4] = tested on: T2, MAO-A; assay: MAO-A activity assay in corticosteroid-stimulated BJ cells; format: cell-based, human; conditions: then 50 μM compound 24 h
T2 construct: endogenous in cells; host or cells: BJ human foreskin fibroblasts stimulated with DEX or HC
Procedure: as §1, §2

## COC(=O)[C@H](O)CC(=O)OCCc1ccc(O)c(O)c1 [OLP, oleohydroxypyretol]
[1]; 10 μM HC 5 days
  total MAO activity in BJ cells: downregulate
[1]; 100 μM DEX 7 days
  total MAO activity in BJ cells: downregulate
[2]
  baseline levels of H3K4 mono-methylation in BJ cells: increased
[3]
  IC50: 32 µM
[4]; 10 μM HC 5 days
  MAO-A activity in BJ cells: downregulate
[4]; 100 μM DEX 7 days
  MAO-A activity in BJ cells: downregulate
